What was measured:
[1] = molecular target: electric eel AChE (Electrophorus electricus, UniProt O42275); assay: biochemical
[2] = Solubility in water of isolated compounds
[3] = molecular target: horse butyxylcholinesterase (Equus caballus, UniProt P81908); assay: biochemical
horse butyxylcholinesterase, sequence (P81908 whole entry): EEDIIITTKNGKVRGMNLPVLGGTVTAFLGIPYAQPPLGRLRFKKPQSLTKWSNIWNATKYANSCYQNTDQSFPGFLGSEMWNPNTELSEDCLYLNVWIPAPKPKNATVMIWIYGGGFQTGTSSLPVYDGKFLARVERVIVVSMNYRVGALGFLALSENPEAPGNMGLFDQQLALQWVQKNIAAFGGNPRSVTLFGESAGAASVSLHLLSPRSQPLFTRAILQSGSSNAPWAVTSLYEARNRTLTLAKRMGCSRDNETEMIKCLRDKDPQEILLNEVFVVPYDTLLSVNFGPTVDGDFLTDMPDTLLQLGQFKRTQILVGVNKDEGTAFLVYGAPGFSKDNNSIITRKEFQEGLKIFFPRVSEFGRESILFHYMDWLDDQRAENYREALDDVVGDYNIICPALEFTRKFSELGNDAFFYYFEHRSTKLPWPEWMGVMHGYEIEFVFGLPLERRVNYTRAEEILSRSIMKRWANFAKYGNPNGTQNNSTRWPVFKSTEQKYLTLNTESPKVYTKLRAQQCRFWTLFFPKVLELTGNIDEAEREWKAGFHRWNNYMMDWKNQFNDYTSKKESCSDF

electric eel AChE, sequence (O42275 24-633): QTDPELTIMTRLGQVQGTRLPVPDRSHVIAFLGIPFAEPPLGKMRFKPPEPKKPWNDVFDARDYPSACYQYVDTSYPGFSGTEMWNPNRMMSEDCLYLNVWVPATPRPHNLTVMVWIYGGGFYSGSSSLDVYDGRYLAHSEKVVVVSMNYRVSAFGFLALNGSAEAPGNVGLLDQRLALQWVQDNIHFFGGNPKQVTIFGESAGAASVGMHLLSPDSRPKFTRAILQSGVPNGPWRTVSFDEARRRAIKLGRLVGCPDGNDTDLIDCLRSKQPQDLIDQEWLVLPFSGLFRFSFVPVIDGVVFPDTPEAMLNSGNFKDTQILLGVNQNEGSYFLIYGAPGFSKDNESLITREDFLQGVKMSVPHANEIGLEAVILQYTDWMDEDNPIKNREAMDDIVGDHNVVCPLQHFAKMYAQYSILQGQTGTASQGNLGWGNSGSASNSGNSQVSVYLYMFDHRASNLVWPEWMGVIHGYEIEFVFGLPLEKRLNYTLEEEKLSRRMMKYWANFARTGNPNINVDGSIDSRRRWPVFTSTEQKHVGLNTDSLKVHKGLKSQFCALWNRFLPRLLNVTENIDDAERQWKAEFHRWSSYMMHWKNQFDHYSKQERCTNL

Question: What does the source list for CC(C)[C@H](C)CC[C@@H](C)[C@H]1CC[C@H]2[C@@H]3CC=C4C[C@@H](O)CC[C@]4(C)[C@H]3CC[C@]12C [Compound 2, campesterol]?
Answer: IC50 [1]: 4.72 µM; Solubility in water [2]: Soluble; IC50 [3]: 10.2 µM

Question: Which IC50 [1] does the source give for C=C(C)[C@@H]1CC[C@]2(CO)CC[C@]3(C)[C@H](CC[C@@H]4[C@@]5(C)CC[C@H](O)C(C)(C)[C@@H]5CC[C@]43C)[C@@H]12 [Compound 1, betulin] here?
Answer: The IC50 was 1.99 µM.

Question: What about the IC50 [3] of the same molecule?
Answer: Its IC50 is 10.5 µM.
